Experimental data taken from ChEMBL document CHEMBL1122197, “Pyridoquinoxaline N-oxides. 1. A new class of antitrichomonal agents” (1982).

What was measured:
Tritrichomonas foetus [1] = assay: Tested for anti-trichomonal activity in Tritrichomonas foetus, expressed as % reduction in the severity of peritoneal cavity infection at the dose of 25 mg/kg
Tritrichomonas foetus [2] = assay: Tested for anti-trichomonal activity in Tritrichomonas foetus, expressed as % reduction in the severity of peritoneal cavity infection at the dose of 12.50 mg/kg; settings: dose 12.5 mg/kg
Tritrichomonas foetus [3] = assay: Tested for anti-trichomonal activity in Tritrichomonas foetus, expressed as % reduction in the severity of peritoneal cavity infection at the dose of 50 mg/kg

| Structure (SMILES) | Reduction (Tritrichomonas foetus [1]) [%] | Reduction (Tritrichomonas foetus [2]) [%] | Reduction (Tritrichomonas foetus [3]) [%] |
| --- | --- | --- | --- |
| Cn1c(=O)ccc2c1nc1ccccc1[n+]2[O-] | 23 | – | – |
| COC(Cn1c(=N)ccc2c1nc1ccccc1[n+]2[O-])OC | 25 | – | – |
| CCn1c(=N)ccc2nc3ccccc3nc21 | 89 | 0 | – |
| CCCn1c(=N)ccc2c1nc1ccccc1[n+]2[O-] | – | – | 0 |
| C=CCn1c(=N)ccc2c1nc1ccccc1[n+]2[O-] | 38 | – | – |
| N=c1ccc2c(nc3ccccc3[n+]2[O-])n1CCO | 57 | – | – |
| N=c1ccc2c(nc3ccccc3[n+]2[O-])n1Cc1ccncc1 | 81 | 18 | 95 |
| Cn1c(=O)ccc2nc3ccccc3nc21 | 18 | – | – |
| Cn1c(=N)ccc2nc3ccccc3nc21 | 75 | 34 | 98 |
| N=c1ccc2c(nc3ccccc3[n+]2[O-])n1C1CCCCC1 | 96 | 21 | – |
| N=c1ccc2c(nc3ccccc3[n+]2[O-])n1Cc1ccccc1 | 19 | – | – |
| CCn1c(=N)ccc2c1nc1ccccc1[n+]2[O-] | 100 | 0 | – |
| COCCn1c(=N)ccc2c1nc1ccccc1[n+]2[O-] | 96 | 0 | – |
| CCOCCn1c(=N)ccc2c1nc1ccccc1[n+]2[O-] | – | – | 9 |
| Cn1c(=N)ccc2c1nc1ccccc1[n+]2[O-] | 97 | 100 | 98 |
| N=c1ccc2nc3ccccc3nc2n1Cc1ccncc1 | – | – | 15 |
